Reference: paper PMC5905968, “Evaluation of the fusion inhibitor P3 peptide as a potential microbicide to prevent HIV transmission in women” (PLoS ONE, 2018)

Legend:
[1] = system: vaginal epithelium of BALB/c mice; experiment: BALB/c mice vaginal irritation test with histological score; assay type: in vivo; parameters: key to Epithelial lesion / Inflammatory infiltrate / Vascular congestion / Edema/fibrosis / Total Score: 0 (no change) when no injury or the observed changes were within normal range; 1 (minimum) when changes were sparse but exceeded those considered normal; 2 (light) when injuries were identifiable but with no severity; 3 (moderate) for significant injury that could increase in severity; 4 (very serious) for very serious injuries that occupy most of the analyzed tissue; conditions: for Edema/fibrosis / Epithelial lesion / Inflammatory infiltrate / Vascular congestion / Total Score: 3% N9 intravaginally, 7 days (irritation control); for Total Score: sum of the four lesion scores
Description: Female BALB/c mice (6–8 weeks-old) (Charles River Laboratories, Wilmington, MA) were pretreated subcutaneously with 2mg of medroxyprogesterone acetate (Depo-Provera; Pfizer, NY, USA) in PBS (Lonza, Verviers, Belgium). After five days, 30μl of test formulation with different doses of P3 diluted in PBS was applied intravaginally daily for 7 days by vaginal gavage to animals previously anesthetized with isoflurane (Forane, Abbott, Madrid). Controls included mice that received PBS (placebo group) and 3% nonoxynol-9 (N9) in PBS (irritation control group). On the eighth day, mice were sacrificed and genital tract tissue were extracted and fixed in 4% paraformaldehyde for histological analysis. The animals were distributed in groups of three mice each: group placebo only treated with PBS (1–3), group A treated with dose of 0.06mg/day ([…]) of P3 in PBS (4–6), group B treated with dose of 0.2mg/day (1522.7 μM) of P3 in PBS (7–9), group C treated with dose of 0.4mg/day (3045.3 μM) of P3 in PBS (10–12) and group irritation control treated with 3% N9 in PBS (13–15).
The presence of histological lesions in the mouse vaginas was evaluated with hematoxylin-eosin staining. Samples were embedded in paraffin by submersion in increasing concentrations of ethanol in water (Rectapur, VWR, England), two baths of xylene (Analar (VWR, England) and another of paraffin, before being placed in a paraffin mold. Subsequently, they were cut using a semimotorized microtome (RM2145 Leica, Germany) and processed for staining. For dewaxing, samples were submersed into two baths of xylene solution (10 min) and three baths in descending order of ethanol (100%, 90% and 70%) (5 min), before being stained with hematoxylin (Merck, Germany) for 5 min and eosin (Merck, Germany) for another 5 min. Post-eosin staining dehydration was performed with passages in increasing concentrations of ethanol (70%, 90% and 100%) and a bath of xylene solution. Finally, they were mounted with D.P.X. (Prolabo, VWR, Spain).
The existence of injury in vaginal epithelium, inflammatory infiltrate, vascular congestion and/or edema in the submucosa was evaluated in each biological sample. The values (score) assigned for each of these lesions were: 0 (no change) when no injury or the observed changes were within normal range; 1 (minimum) when changes were sparse but exceeded those considered normal; 2 (light) when injuries were identifiable but with no severity; 3 (moderate) for significant injury that could increase in severity; 4 (very serious) for very serious injuries that occupy most of the analyzed tissue. These values were added up and determined the level of vaginal irritation as minimum 1–4, average 5–8, moderate 9–11 and severe 12–16 [34].

[2] = at temperatures higher than 40 °C; cited from earlier work
Description: Microbicides must be stable at 37°C for a long period of time since it is the body temperature, and at 65 °C since some manufacturing processes may require high temperatures. Stability at room temperature or at 4 °C is also important since the storage at these temperatures is easier for the user and more affordable than at -20 °C. No statistically significance differences were observed on the anti-HIV-1 activity of P3 peptide stored at 25, 37 and 65 °C for a period of a week. The stability of P3 under different temperatures is much better than other peptide-based microbicide candidates or d ...

Compound | level of irritation of the vaginal wall ([1]; 3% N9 in PBS daily for 7 days, three samples) | Edema/fibrosis ([1]; mouse 13) | Epithelial lesion ([1]; mouse 13) | Inflammatory infiltrate ([1]; mouse 13) | Vascular congestion ([1]; mouse 13) | Total Score ([1]; mouse 13) | Edema/fibrosis ([1]; mouse 14) | Epithelial lesion ([1]; mouse 14) | Inflammatory infiltrate ([1]; mouse 14) | Vascular congestion ([1]; mouse 14) | Total Score ([1]; mouse 14) | Edema/fibrosis ([1]; mouse 15) | Epithelial lesion ([1]; mouse 15) | Inflammatory infiltrate ([1]; mouse 15) | Vascular congestion ([1]; mouse 15) | Total Score ([1]; mouse 15) | thermal stability [2]
CCCCCCCCCc1ccc(OCCOCCOCCOCCOCCOCCOCCOCCOCCO)cc1 [N9, nonoxynol-9, reference compound] | average (average 5–8) | 0 | 3 | 3 | 2 | 8 | 0 | 2 | 3 | 2 | 7 | 0 | 3 | 3 | 2 | 8 | 
Spantide II |  |  |  |  |  |  |  |  |  |  |  |  |  |  |  |  | not stable
